In US7550469B2, “Heterocyclic amide derivatives and their use as dopamine D3 receptor ligands” (Aventis Pharmaceuticals Inc., priority 2001, dated 2009) one finds Ki data, which are given here for 49 compounds.

T1 sequence (P35462 whole entry): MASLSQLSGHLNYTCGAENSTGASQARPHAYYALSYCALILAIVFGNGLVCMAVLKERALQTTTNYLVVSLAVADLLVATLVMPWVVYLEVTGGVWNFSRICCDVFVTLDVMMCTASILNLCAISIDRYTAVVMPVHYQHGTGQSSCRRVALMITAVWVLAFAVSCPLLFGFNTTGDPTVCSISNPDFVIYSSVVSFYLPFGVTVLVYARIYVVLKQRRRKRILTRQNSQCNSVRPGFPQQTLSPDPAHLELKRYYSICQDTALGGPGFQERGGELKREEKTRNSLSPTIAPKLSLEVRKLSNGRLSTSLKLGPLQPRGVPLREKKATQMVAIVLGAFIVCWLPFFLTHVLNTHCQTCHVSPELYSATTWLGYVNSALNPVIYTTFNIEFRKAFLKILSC

The first experiment addresses T1, cloned human dopamine D3 receptors (Homo sapiens, UniProt P35462).
T1 construct: expressed in transfected cells; membrane homogenate
Kind of experiment: [N-Methyl-3H]Spiroperidol binding to cloned human dopamine D3 receptors (Protocol 1). The following applies: D3 Ki (nM), the 25th table. Summed up: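 Membranes from CHO cells stably expressing cloned human D3 receptor were used for [N-methyl-3H]spiroperidol (60-90 Ci/mmol) binding. Assay buffer was 0.05 M Tris HCl pH 7.7 with 120 mM NaCl, 5 mM KCl, 2 mM CaCl2 and 1 mM MgCl2, optionally 0.1% ascorbic acid; total ligand concentration calculated from added CPM.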
For orientation: Ki means the equilibrium dissociation constant of an inhibitor or competing ligand from its target. `COc1ccc(OC(=O)NCC2CC2CN2CCC(c3noc4ccsc34)CC2)cc1` (centres unmarked) [compound 831671] displayed a Ki of 96.4 nM. Same read-out and setting: as for `O=C(NCC1CC1CN1CCC(c2noc3ccsc23)CC1)Oc1ccc(F)cc1` (centres unmarked) [compound 831697], the figure is 8.35 nM.

Regarding `Cc1ccc(OC(=O)NCC2CC2CN2CCC(c3noc4ccsc34)CC2)cc1` (centres unmarked) [compound 831698], the Ki is 29.4 nM.

With `O=C(NCC1CC1CN1CCC(c2noc3ccsc23)CC1)Oc1ccccc1` (centres unmarked) [compound 831699], the Ki stood at 3.04 nM.

The experiment is the same for the next values; noted with them: the 23rd table; read-out: D3 Ki.
`CC[C@H]1CC[C@H](NC[C@@H]2C[C@H]2CN2CCN(c3ccccc3C)CC2)CC1` [compound 831876]: the Ki came out at 12 nM. As to `C[C@H]1CC[C@H](NC[C@@H]2C[C@H]2CN2CCN(c3csc4cc(C(F)(F)F)ccc34)CC2)CC1` [compound 832209], the inhibition constant Ki worked out at 13.5 nM. With `CCC1CCC(NCC2CC2CN2CCN(c3cc(C)ccc3C)CC2)CC1` (centres unmarked) [compound 832265], the Ki is 72.8 nM. With `CC[C@H]1CC[C@H](NC[C@@H]2C[C@H]2CN2CCN(c3ccc(C)cc3C)CC2)CC1` [compound 832266], the Ki was 29.6 nM. Same read-out and setting: as for `C[C@H]1CC[C@H](NC[C@@H]2C[C@H]2CN2CCC(c3noc4c(C(F)(F)F)cccc34)CC2)CC1` [compound 832275], the figure is 33.6 nM.

In the case of `CC(C)CCNC[C@@H]1C[C@H]1CN1CCN(c2csc3cc(C(F)(F)F)ccc23)CC1` [compound 832276], the Ki was found to be 30.3 nM. Take `COc1ccc(NC[C@@H]2C[C@H]2CN2CCN(c3csc4cc(C(F)(F)F)ccc34)CC2)cc1` [compound 832279]: the Ki is 57 nM. In the case of `CSCCCNC[C@@H]1C[C@H]1CN1CCN(c2csc3cc(C(F)(F)F)ccc23)CC1` [compound 832280], the inhibition constant Ki was determined as 19.2 nM. As to `FC(F)(F)c1ccc2c(N3CCN(C[C@@H]4C[C@H]4CNCCc4cccnc4)CC3)csc2c1` [compound 832281], the Ki turned out to be 5.59 nM. As to `FC(F)(F)c1ccc2c(N3CCN(C[C@@H]4C[C@H]4CNCCc4ccccc4)CC3)csc2c1` [compound 832322], the Ki was 227 nM.

`CC[C@H]1CC[C@H](NC[C@@H]2C[C@H]2CN2CCN(c3c(Cl)sc4cc(C(F)(F)F)ccc34)CC2)CC1` [compound 832329]: the inhibition constant (Ki) is 151 nM. In the case of `FC(F)(F)c1ccc2c(N3CCN(C[C@@H]4C[C@H]4CNC4CCN(CC5CC5)CC4)CC3)csc2c1` [compound 832387], the Ki is 36.5 nM. On to `FC(F)(F)c1ccc2c(N3CCN(C[C@@H]4C[C@H]4CNCCSc4ccc(Cl)cc4)CC3)csc2c1` [compound 832388], for which the inhibition constant Ki was 71.9 nM.

For the compound `CC[C@H]1CC[C@H](NCC2(CCN3CCC(c4noc5ccsc45)CC3)CC2)CC1` [compound 832401], the Ki amounted to 124 nM. Take `FC(F)(F)c1cccc2c(C3CCN(C[C@@H]4C[C@H]4CNCC45CC6CC(CC(C6)C4)C5)CC3)noc12` [compound 832783]: the inhibition constant Ki is 47.6 nM. `Cc1nc(Cl)c(Cl)n1CCCNC[C@@H]1C[C@H]1CN1CCN(c2csc3cc(C(F)(F)F)ccc23)CC1` [compound 832817]: the Ki came out at 36.5 nM.

As for `FC(F)(F)Oc1cccc(CNC[C@@H]2C[C@H]2CN2CCN(c3csc4cc(C(F)(F)F)ccc34)CC2)c1` [compound 833067], the inhibition constant Ki was 54.9 nM. Take `FC(F)(F)c1ccc2c(N3CCN(C[C@@H]4C[C@H]4CNCCCn4ccnc4)CC3)csc2c1` [compound 833257, (3-imidazol-1-yl-propyl)-{(1R,2R)-2-[4-(6-trifluoromethyl-benzo[b]thiophen-3-yl)-piperazin-1-ylmethyl]-cyclopropylmethyl}-amine]: the Ki came to 2.62 nM.

`COc1cccc2c(C3CCN(C[C@@H]4C[C@H]4CN[C@H]4CC[C@H](C)CC4)CC3)noc12` [compound 833329]: the Ki worked out at 31.9 nM.

As for `FC(F)(F)c1ccc2c(N3CCN(C[C@@H]4C[C@H]4CN4CCC(n5ccnc5)CC4)CC3)csc2c1` [compound 833349], the Ki was 22.9 nM. Take `COc1ccccc1N1CCN(C[C@@H]2C[C@H]2CN2CCN(c3csc4cc(C(F)(F)F)ccc34)CC2)CC1` [compound 833379]: the inhibitory constant (Ki) worked out at 0.84 nM. Still for that read-out and setting: the result for `COc1cccc2c(C3CCN(C[C@@H]4C[C@H]4CNCCC(C)(C)C)CC3)noc12` [compound 833433] reads 112 nM.

Still in this experiment, the particulars now being: the 24th table; read-out: D3 Ki.
For `O=S(=O)(NCC1CC1CN1CCC(c2noc3ccsc23)CC1)c1ccc(OC(F)(F)F)cc1` (centres unmarked) [compound 831513], the inhibition constant Ki is 65.5 nM. As to `O=S(=O)(NCC1CC1CN1CCN(c2csc3cc(C(F)(F)F)ccc23)CC1)c1ccc(OC(F)(F)F)cc1` (centres unmarked) [compound 831592], the inhibition constant (Ki) was determined as 195 nM. Turning to `CCCCS(=O)(=O)NCC1CC1CN1CCN(c2csc3cc(C(F)(F)F)ccc23)CC1` (centres unmarked) [compound 831636], the inhibition constant Ki came to 186 nM. `O=S(=O)(CCc1cccc2ccccc12)NCC1CC1CN1CCN(c2csc3cc(C(F)(F)F)ccc23)CC1` (centres unmarked) [compound 831910]: the Ki stood at 277 nM.

The experiment is the same for the next values; noted with them: the 25th table; read-out: D3 Ki.
Regarding `CCCCOC(=O)NCC1CC1CN1CCC(c2noc3ccsc23)CC1` (centres unmarked) [compound 831696], the inhibitory constant (Ki) was found to be 29.3 nM.

Still in this experiment, the particulars now being: the 26th table; read-out: D3 Ki.
As to `OC(CCN1CCC(c2noc3ccsc23)CC1)CN1CCN(c2ccc(F)cc2)CC1` (centres unmarked) [compound 831939], the Ki was determined as 90 nM.

With `OC(CCN1CCC(c2noc3ccsc23)CC1)CN1CCOCC1` (centres unmarked) [compound 831940], the inhibition constant Ki came out at 356 nM. On to `OC(CCN1CCC(c2noc3ccsc23)CC1)CN1CCc2ccccc2C1` (centres unmarked) [compound 831941], for which the inhibition constant (Ki) was determined as 161 nM. Turning to `OC(CCN1CCC(c2noc3ccsc23)CC1)CN1CCN(c2ccccc2)CC1` (centres unmarked) [compound 831943], the Ki was determined as 264 nM.

`OC(CCN1CCC(c2noc3ccsc23)CC1)CN1CCC(Cc2ccccc2)CC1` (centres unmarked) [compound 831944]: the Ki amounted to 38.5 nM. On the same count and under the same terms, the result for `OC(CCN1CCC(c2noc3ccsc23)CC1)CNCCc1ccccc1` (centres unmarked) [compound 831945] reads 700 nM.

For the next experiment, the target named is Alpha-1 adrenergic receptors from rat brain cortex. Kind of experiment: [3H]Prazosin binding to alpha-1 adrenergic receptors from rat brain cortex (Protocol 4). The following applies: r = rat; piperazines (n = 1) vs homopiperazines (n = 2); read-out: r-α1 Ki. The source says:
[^3H]Prazosin Binding to Alpha-1 Adrenergic Receptors from Rat Brain Cortex
Objective: This in vitro assay is designed as a screen to identify compounds displaying a affinity for the a, adrenoceptor subtype in membranes from rat cortex. It measures the ability of the test compounds to displace [^3H]prazosin from the α1 sites.
Membrane Preparation: Rat brain tissue can be obtained from either fresh (male Wistar rats; 200-250 g) or frozen (male Sprague-Dawley 200-250 g from Harlan; cat. #BT-403) stocks. The cortex is dissected, homogenized in 50 vol (wet weight) ice-cold 50 mM Tris buffer (pH 7.7 at 25° C.). The homogenate is centrifuged at 48,000 g for 10 min, the pellet is resuspended in 50 mM Tris buffer and centrifuged a second time. The second pellet (P2) is resuspended to yield a concentration of 115 mg wet weight per 10 ml. […] Membranes should be mixed just before addition to ensure an even suspension. […] This is diluted to a 0.5 mM stock in dH2O. Serial dilutions in Buffer A are made from which 50 μl additions to the plate are made in duplicate in order to achieve the final concentrations desired. Typically, one 96 well plate is used to evaluate 11 compounds at 4 concentrations (10^−6-10^−9 M) in duplicate. Total binding and nonspecific binding are determined in quadruplicate. Usually one standard is run with each assay. • [^3H]Prazosin is made up in Buffer A such that when 50 μl are added per well the final concentration is […] in a final assay volume of 200 μl. The final concentration should be verified by running a sample in a scintillation counter prior to adding the [^3H]prazosin to the 96 well plate. Note: The radioactivity should be prepared just before the additions are made so that it is not allowed to sit on the bench for very long. • Packard GF/B Plate Pretreatment: The filter plates are presoaked for at least 30 min in ice cold Buffer B containing 0.05% polyethyleneimine (200 μl/200 ml) to maximize filtration efficiency and minimize filter blank binding. • Incubation & Filtration: Once buffer, compounds, [^3H]prazosin and membrane have been added (and mixed), the 96 well plates are incubated for 40 min at 37° C. and spaced 3-5 min apart. At 40 min, the plates are filtered using a Tomtec Automated Cell Harvester. Filtration is immediately followed by washes of ice cold Buffer B (total vol. ˜7 ml). • Drying and Counting: Each filter plate is dried under a heat lamp for 15 min. The back of the plate is sealed and 40 μl of Packard microscint fluid are added per well. Using Packard film, each plate is heat sealed prior to being counted in a Packard Topcount Scintillation counter. A program has been written that counts each plate twice sending DPM, CPM and TSIS data to disk and printer. • Analysis of Results: Raw DPM and CPM data are captured on disk and are imported into one of several software packages (Graphpad Prism Ver 2.0, Excel) residing on the LAN. Specific binding is defined as the difference between total binding and the binding in the presence of 10 μM phentolamine. Total binding is less than 10% of the total added ligand. Software using one-site competition curve analysis is employed in the calculation of IC50 and KI (Cheng-Prusoff equation, 1973). The top and bottom of the non-linear regression are held constant at 0% and 100% inhibition. The percent inhibition at each drug concentration is the mean of duplicate determinations.
Consider `O=C(NCCCCN1CCN(c2csc3cc(F)ccc23)CC1)c1cc2ccccc2s1` [compound 811614], for which the inhibition constant (Ki) was determined as 5 nM. For the compound `COc1ccccc1C(=O)NCCCCN1CCN(c2csc3cc(F)ccc23)CC1` [compound 813368], the inhibition constant Ki worked out at 4.1 nM. Turning to `O=C(NCCCCN1CCN(c2csc3cc(F)ccc23)CC1)c1ccco1` [compound 813371], the Ki came out at 1.1 nM. For the compound `O=C(NCCCCN1CCN(c2csc3cc(F)ccc23)CC1)c1ccc2ccccc2c1` [compound 813372], the Ki is 40.6 nM. In the case of `O=C(NCCCCN1CCN(c2csc3cc(F)ccc23)CC1)c1cc2ccccc2[nH]1` [compound 813373], the inhibition constant (Ki) was 25.2 nM. Regarding `O=C(NCCCCN1CCN(c2csc3cc(F)ccc23)CC1)c1ccc(C(F)(F)F)cc1` [compound 813374], the inhibitory constant (Ki) amounted to 32.4 nM. Take `COc1cccc(C(=O)NCCCCN2CCN(c3csc4cc(F)ccc34)CC2)c1` [compound 813380]: the inhibitory constant (Ki) came to 21.9 nM.

The experiment is the same for the next values; noted with them: rat α-1; read-out: rat alpha 1 Ki.
On to `O=C(NCCCCN1CCN(c2csc3cc(F)ccc23)CC1)c1cc2ccccc2s1` [compound 811614], for which the Ki was found to be 5 nM.

On to `COc1ccccc1C(=O)NCCCCN1CCN(c2csc3cc(F)ccc23)CC1` [compound 813368], for which the inhibitory constant (Ki) amounted to 4.1 nM.

`O=C(NCCCCN1CCN(c2csc3cc(F)ccc23)CC1)c1ccco1` [compound 813371]: the Ki came out at 1.1 nM. Same read-out and setting: as for `O=C(NCCCCN1CCN(c2csc3cc(F)ccc23)CC1)c1ccc(C(F)(F)F)cc1` [compound 813374], the figure is 32.4 nM. `O=C(NCCCCN1CCN(c2csc3cc(F)ccc23)CC1)c1ccc2c(c1)OCO2` [compound 813375]: the Ki was found to be 2.6 nM. Same read-out and setting: the result for `CCCCOc1ccc(C(=O)NCCCCN2CCN(c3csc4cc(F)ccc34)CC2)cc1` [compound 813376] reads 10.9 nM. Take `O=C(NCCCCN1CCN(c2csc3cc(F)ccc23)CC1)c1sc2ccccc2c1Cl` [compound 813377]: the Ki is 15.4 nM. Still for that read-out and setting: the result for `O=C(NCCCCN1CCN(c2csc3cc(F)ccc23)CC1)c1ccc(Br)cc1` [compound 813381] reads 32.3 nM. As for `O=C(NCCCCN1CCN(c2csc3cc(F)ccc23)CC1)c1ccc(Cl)cc1` [compound 813754], the Ki turned out to be 7 nM.
